Test system: RIV aptamer (DNA, aptamer) TAGGGAAGAGAAGGACATATGATGACTCACAACTGGACGAACGTACTTATCCCCCCCAATCACTAGTGAATT
Experiment: square-wave voltammetry aptasensor
Conditions: K+ 0.01 M (KCl); [Fe(CN)6]3−/4−; concentration tested not stated

Row | SMILES | binding
1 | N=C(N)NCCC[C@H](N)C(=O)O | weak
2 | NCC(=O)O | no
3 | N[C@@H](CS)C(=O)O | weak
4 | O=C(O)[C@@H]1CCCN1 | weak
5 | OC[C@H]1OC(O)[C@H](O)[C@@H](O)[C@@H]1O (some centres unmarked) | no
